Reference: patent US20260022142A1, “MACROCYCLIC IMMUNOMODULATORS” (Bristol-Myers Squibb Company, priority 2022, published 2026)
Numbered stars: 1 amine (or outer) side, 2 acyl side, 3 side chain; on linkers, the order of the positions; unused ones are H or OH. Bridge positions count the residues as written; N and C are the ends. Square brackets hold non-standard residues; d marks the D form. Peptide text beside a SMILES is read from it. * marks the point of attachment. ξ: configuration not given here. Phe(4-COOH) = N[C@@H](Cc1ccc(C(=O)O)cc1)C(=O)O; Bip = N[C@@H](Cc1ccc(-c2ccccc2)cc1)C(=O)O; Phe(3-Me) = Cc1cccc(C[C@H](N)C(=O)O)c1; γGlu = O=C(O)[C@H](CCC(=O)[*:2])N[*:1]; His(π-Me) = Cn1cncc1C[C@H](N)C(=O)O; Val(3-OH) = CC(C)(O)[C@H](N)C(=O)O; hArg = N=C(N)NCCCC[C@H](N)C(=O)O; 4Pal = N[C@@H](Cc1ccncc1)C(=O)O; Cha = N[C@@H](CC1CCCCC1)C(=O)O; Cit = NC(=O)NCCC[C@H](N)C(=O)O; Thr(3ξ) = CC(O)[C@H](N)C(=O)O; Carboxymethyl = O=C(O)C*; Orn = NCCC[C@H](N)C(=O)O; Aun = NCCCCCCCCCCC(=O)O; Dab = NCC[C@H](N)C(=O)O; Dap = NC[C@H](N)C(=O)O; AEEA = NCCOCCOCC(=O)O

biological target: T1, PD-1/PD-L1 interaction (PE-labeled human PD-L1-Ig binding to Jurkat cell line over-expressing human PD-1) (Homo sapiens, UniProt Q15116); experiment: Jurkat-PD-1 Cell Binding High-Content Screening Assay (CBA); format: cell-based; details: Jurkat cell line over-expressing human PD-1; PE-labeled PD-L1-Ig 20 nM final; read-out: Jurkat hPD1-PDL1 IC50
T1 construct: expressed in transfected cells; host or cells: Jurkat
T1 sequence (Q15116 25-288): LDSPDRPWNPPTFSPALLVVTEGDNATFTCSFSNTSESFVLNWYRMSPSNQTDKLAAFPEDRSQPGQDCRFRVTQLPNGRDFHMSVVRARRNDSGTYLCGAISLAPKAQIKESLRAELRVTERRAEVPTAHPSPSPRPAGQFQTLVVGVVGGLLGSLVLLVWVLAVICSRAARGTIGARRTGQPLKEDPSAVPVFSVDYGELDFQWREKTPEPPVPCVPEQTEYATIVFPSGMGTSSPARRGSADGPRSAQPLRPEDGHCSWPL
Summary of the method: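 First, compound is added to PD-1-expressing Jurkat cells in serum-containing DMEM and left 2 h at 37° C. Next, PE-conjugated PD-L1-Ig is introduced at 20 nM final concentration for 1 hour. Finally, cells are fixed in 4% paraformaldehyde with Hoechst 33342, washed and imaged.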

| Structure (SMILES) | IC50 |
| --- | --- |
| Cc1cccc(C[C@@H]2NC(=O)[C@H](CC(=O)O)NC(=O)[C@H](Cc3ccc(OCC(=O)O)cc3)NC(=O)[C@H](CCCCNC(=N)N)NC(=O)CSC[C@@H](C(=O)NCCOCCOCC(=O)N[C@@H](CCN)C(=O)NCCCCCCCCCCC(=O)O)NC(=O)[C@H](CCCN)NC(=O)[C@H](C(C)C)NC(=O)[C@H](CC3CCCCC3)NC(=O)[C@H](CCN)NC(=O)[C@@H](CC(C)C)NC(=O)[C@H](CCCN)NC(=O)[C@H](C(C)C)NC(=O)[C@H](Cc3ccc(-c4ccccc4)cc3)NC(=O)[C@H](C(C)C)NC2=O)c1 [Compound 3248] ({CH2CO}-[hArg]Y(Carboxymethyl)D[Phe(3-Me)]V[Bip]V[Orn][dL][Dab][Cha]V[Orn]C[AEEA][Dab][Aun]-OH; thioether N-14) | 3.6 nM |
| Cc1cccc(C[C@@H]2NC(=O)[C@H](CC(=O)O)NC(=O)[C@H](Cc3ccc(OCC(=O)O)cc3)NC(=O)[C@H](CN)NC(=O)CSC[C@@H](C(=O)N[C@@H](CCCCN)C(=O)N[C@@H](CO)C(=O)NCCCCCCCCCCC(=O)O)NC(=O)[C@H](CCCN)NC(=O)[C@H](C(C)C)NC(=O)[C@H](CC3CCCCC3)NC(=O)[C@H](CCN)NC(=O)[C@@H](CC(C)C)NC(=O)[C@H](CCCN)NC(=O)[C@H](Cc3ccc(O)cc3)NC(=O)[C@H](Cc3ccc(-c4ccccc4)cc3)NC(=O)[C@H](C(C)C)NC2=O)c1 [Compound 3608] ({CH2CO}-[Dap]Y(Carboxymethyl)D[Phe(3-Me)]V[Bip]Y[Orn][dL][Dab][Cha]V[Orn]CKS[Aun]-OH; thioether N-14) | 52.7 nM |
| Cc1cccc(C[C@@H]2NC(=O)[C@H](CC(=O)O)NC(=O)[C@H](Cc3ccc(OCC(=O)O)cc3)NC(=O)[C@H](CN)NC(=O)CSC[C@@H](C(=O)N[C@@H](C)C(=O)N[C@@H](CC(=O)O)C(=O)NCCOCCOCC(=O)N[C@@H](CC(=O)O)C(=O)NCCOCCOCC(=O)NCCCCCCCCCCC(=O)O)NC(=O)[C@H]([C@@H](C)O)NC(=O)[C@H](C(C)C)NC(=O)[C@H](CC3CCCCC3)NC(=O)[C@H](CCN)NC(=O)[C@@H](CC(C)C)NC(=O)[C@H](CCCN)NC(=O)[C@H](CCCNC(N)=O)NC(=O)[C@H](Cc3ccc(-c4ccccc4)cc3)NC(=O)[C@H](C(C)C)NC2=O)c1 [Compound 1013] ({CH2CO}-[Dap]Y(Carboxymethyl)D[Phe(3-Me)]V[Bip][Cit][Orn][dL][Dab][Cha]VTCAD[AEEA]D[AEEA][Aun]-OH; thioether N-14) | 11.9 nM |
| Cc1cccc(C[C@@H]2NC(=O)[C@H](CC(=O)O)NC(=O)[C@H](Cc3ccc(OCC(=O)O)cc3)NC(=O)[C@H](CN)NC(=O)CSC[C@@H](C(=O)N[C@@H](CCCCN)C(=O)NCCCCCCCCCCC(=O)O)NC(=O)[C@H](C(C)O)NC(=O)[C@H](C(C)C)NC(=O)[C@H](CC3CCCCC3)NC(=O)[C@H](Cc3cnc[nH]3)NC(=O)[C@@H](CC(C)C)NC(=O)[C@H](CCCN)NC(=O)[C@H](CCC(=O)O)NC(=O)[C@H](Cc3ccc(-c4ccccc4)cc3)NC(=O)[C@H](C(C)C)NC2=O)c1 (stereo partly drawn) [Compound 3160] ({CH2CO}-[Dap]Y(Carboxymethyl)D[Phe(3-Me)]V[Bip]E[Orn][dL]H[Cha]V[Thr(3ξ)]CK[Aun]-OH; thioether N-14) | 37.5 nM |
| Cc1cccc(C[C@@H]2NC(=O)[C@H](CC(=O)O)NC(=O)[C@H](Cc3ccc(OCC(=O)O)cc3)NC(=O)[C@H](CN)NC(=O)CSC[C@@H](C(=O)N[C@@H](C)C(=O)N[C@@H](CCC(=O)NCC(=O)NCCCCCCCCCCC(=O)O)C(=O)O)NC(=O)[C@H]([C@@H](C)O)NC(=O)[C@H](C(C)C)NC(=O)[C@H](CC3CCCCC3)NC(=O)[C@H](CCN)NC(=O)[C@@H](CC(C)C)NC(=O)[C@H](CCCN)NC(=O)[C@H](CCCNC(N)=O)NC(=O)[C@H](Cc3ccc(-c4ccccc4)cc3)NC(=O)[C@H](C(C)C)NC2=O)c1 [Compound 1011] ({CH2CO}-[Dap]Y(Carboxymethyl)D[Phe(3-Me)]V[Bip][Cit][Orn][dL][Dab][Cha]VTCA[γGlu]G[Aun]-OH; thioether N-14) | 8.8 nM |
| Cc1cccc(C[C@@H]2NC(=O)[C@H](CC(=O)O)NC(=O)[C@H](Cc3ccc(OCC(=O)O)cc3)NC(=O)[C@H](CN)NC(=O)CSC[C@@H](C(=O)N[C@@H](CC(=O)O)C(=O)NCCOCCOCC(=O)NCCCCCCCCCCC(=O)O)NC(=O)[C@H](CCCN)NC(=O)[C@H](C(C)C)NC(=O)[C@H](CC3CCCCC3)NC(=O)[C@H](CCN)NC(=O)[C@@H](CC(C)C)NC(=O)[C@H](CCCN)NC(=O)[C@H](CCCNC(N)=O)NC(=O)[C@H](Cc3ccc(-c4ccccc4)cc3)NC(=O)[C@H](C(C)C)NC2=O)c1 [Compound 2020] ({CH2CO}-[Dap]Y(Carboxymethyl)D[Phe(3-Me)]V[Bip][Cit][Orn][dL][Dab][Cha]V[Orn]CD[AEEA][Aun]-OH; thioether N-14) | 10.5 nM |

Further lines, results first:

| IC50 | Structure (SMILES) |
| --- | --- |
| 6.1 nM | Cc1cccc(C[C@@H]2NC(=O)[C@H](CC(=O)O)NC(=O)[C@H](Cc3ccc(OCC(=O)O)cc3)NC(=O)[C@H](CCCNC(=N)N)NC(=O)CSC[C@@H](C(=O)N[C@@H](CCN)C(=O)NCCCCCCCCCCC(=O)O)NC(=O)[C@H](CCCNC(N)=O)NC(=O)[C@H](C(C)C)NC(=O)[C@H](CC3CCCCC3)NC(=O)[C@H](CCN)NC(=O)[C@@H](CC(C)C)NC(=O)[C@H](CCCN)NC(=O)[C@H](C(C)C)NC(=O)[C@H](Cc3ccc(-c4ccccc4)cc3)NC(=O)[C@H](C(C)C)NC2=O)c1 [Compound 3291] ({CH2CO}-RY(Carboxymethyl)D[Phe(3-Me)]V[Bip]V[Orn][dL][Dab][Cha]V[Cit]C[Dab][Aun]-OH; thioether N-14) |
| 10.9 nM | Cc1cccc(C[C@@H]2NC(=O)[C@H](CC(=O)O)NC(=O)[C@H](Cc3ccc(OCC(=O)O)cc3)NC(=O)[C@H](Cc3cncn3C)NC(=O)CSC[C@@H](C(=O)N[C@@H](CCN)C(=O)NCCCCCCCCCCC(=O)O)NC(=O)[C@H](CO)NC(=O)[C@H](C(C)(C)O)NC(=O)[C@H](CC3CCCCC3)NC(=O)[C@H](CCN)NC(=O)[C@@H](CC(C)C)NC(=O)[C@H](CCCN)NC(=O)[C@H](Cc3ccc(OCC(=O)O)cc3)NC(=O)[C@H](Cc3ccc(-c4ccccc4)cc3)NC(=O)[C@H](Cc3ccc(OCC(=O)O)cc3)NC2=O)c1 [Compound 2141] ({CH2CO}-[His(π-Me)]Y(Carboxymethyl)D[Phe(3-Me)]Y(Carboxymethyl)[Bip]Y(Carboxymethyl)[Orn][dL][Dab][Cha][Val(3-OH)]SC[Dab][Aun]-OH; thioether N-14) |
| 19.7 nM | CC[C@H](C)[C@@H]1NC(=O)[C@H](Cc2ccc(-c3ccccc3)cc2)NC(=O)[C@H](C(C)C)NC(=O)[C@H](Cc2cccc(C)c2)NC(=O)[C@H](CC(=O)O)NC(=O)[C@H](Cc2ccc(C(=O)O)cc2)NC(=O)[C@H](Cc2ccncc2)NC(=O)CSC[C@@H](C(=O)NCCOCCOCC(=O)N[C@@H](CCCCN)C(=O)NCCCCCCCCCCC(=O)O)NC(=O)[C@H]([C@@H](C)O)NC(=O)[C@H](C(C)C)NC(=O)[C@H](CC2CCCCC2)NC(=O)[C@H](CCN)NC(=O)[C@@H](CC(C)C)NC(=O)[C@H](CCCN)NC1=O [Compound 1191] ({CH2CO}-[4Pal][Phe(4-COOH)]D[Phe(3-Me)]V[Bip]I[Orn][dL][Dab][Cha]VTC[AEEA]K[Aun]-OH; thioether N-14) |
